Legend:
[1] = Phase I metabolic stability in rat liver microsomes (with NADPH); format: in vitro ADME; settings: pH 7.4, presence of NADPH, mean ± SD, n = 3
Protocol: We evaluated the Phase I metabolic stability of compounds 2−7 and 14−19 using rat and human liver microsomes, as previously described.[45]
Phase I metabolic stability assays were conducted using rat and human liver microsomes as previously described[45],[70] with minor modifications. In brief, the reactions were carried out with 100 mM potassium phosphate buffer, pH 7.4, in the presence of NADPH regenerating system (1.3 mM NADPH, 3.3 mM glucose 6-phosphate, 3.3 mM MgCl2, 0.4 U/mL glucose-6-phosphate dehydrogenase, 50 μM sodium citrate). Negative controls without cofactors were assessed to determine the non-CYP-mediated metabolism. Compound disappearance was monitored over time using a liquid chromatography and tandem mass spectrometry (LC/MS) method. All reactions were performed in triplicate.
Chromatographic analysis was performed on a Dionex ultra high-performance LC system coupled with Q Exactive Focus orbitrap mass spectrometer (Thermo Fisher Scientific Inc., Waltham MA). Separation was achieved using Agilent Eclipse Plus column (100 × 2.1 mm^2 i.d.; maintained at 35 °C) packed with a 1.8 μm C18 stationary phase. […] The total run time for each analyte was 6.5 min. Pumps were operated at a flow rate of 0.3 mL/min. The mass spectrometer controlled by Xcalibur software 4.0.27.13 (Thermo Scientific) was operated with a HESI ion source in positive ionization mode. Compounds were identified in the full-scan mode (from m/z 50 to 750) by comparing t = 0 samples with t = 30 min and t = 60 min samples.

[2] = target: human D2LR (Homo sapiens, UniProt P14416); test: biochemical
[3] = target: T1, human D4R (Homo sapiens, UniProt P21917); test: [3H]N-methylspiperone radioligand competition binding, hD4R membranes
T1 sequence (P21917 1-419): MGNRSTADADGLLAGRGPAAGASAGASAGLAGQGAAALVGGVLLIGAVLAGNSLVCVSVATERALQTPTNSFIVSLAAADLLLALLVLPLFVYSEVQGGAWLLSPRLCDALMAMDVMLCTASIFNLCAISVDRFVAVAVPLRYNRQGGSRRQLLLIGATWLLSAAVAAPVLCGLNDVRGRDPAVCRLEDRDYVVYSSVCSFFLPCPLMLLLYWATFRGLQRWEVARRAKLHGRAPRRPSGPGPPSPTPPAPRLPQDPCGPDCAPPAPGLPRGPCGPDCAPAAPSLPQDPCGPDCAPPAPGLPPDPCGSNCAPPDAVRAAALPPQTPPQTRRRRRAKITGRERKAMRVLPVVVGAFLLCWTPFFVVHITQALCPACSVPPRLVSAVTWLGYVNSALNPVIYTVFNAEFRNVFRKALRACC

[4] = target: T1, human D4R
Protocol: We investigated the effects of the triazole linker on D4R-mediated inhibition of forskolin-stimulated cAMP accumulation. […] All compounds were tested in both agonist and antagonist modes using CHO-K1 cells stably expressing the human D4R.
D4R-mediated inhibition of forskolin-stimulated cAMP production was assayed using the PerkinElmer LANCE Ultra cAMP assay kit (PerkinElmer, Inc., Waltham, MA). CHO-K1 cells stably expressing the human D4R were maintained in Ham’s F12 supplemented with 10% fetal bovine serum, 100 U/mL penicillin, 100 μg/mL streptomycin, 800 μg/mL G418, and 300 μg/mL hygromycin at 37 °C, 5% CO2, and 90% humidity. Cells were seeded in Hank’s balanced salt solution (with CaCl2 and MgCl2) with 5 mM HEPES buffer and 0.2 μM sodium metabisulfite at a density of 5000 cells/well in 384-well white plates. Compounds and forskolin were made in the same buffer. […] Eu-cAMP tracer and ULight-anti-cAMP solutions were added as directed by the manufacturer and cells were incubated for 2 h in the dark at room temperature, after which a time-resolved fluorescence resonance energy transfer (TR-FRET) signal was measured using a BMG Labtech PHERAstar Fs (BMG Labtech USA, Cary, NC). […] The data from each experiment was fit, as described above, with the Emax, Ant. %, EC50, and IC50 values extracted from the nonlinear regression. These values were then averaged together across experiments using descriptive statistics in Prism and reported as means ± SEM.

Sequence of human D2LR (P14416 whole entry): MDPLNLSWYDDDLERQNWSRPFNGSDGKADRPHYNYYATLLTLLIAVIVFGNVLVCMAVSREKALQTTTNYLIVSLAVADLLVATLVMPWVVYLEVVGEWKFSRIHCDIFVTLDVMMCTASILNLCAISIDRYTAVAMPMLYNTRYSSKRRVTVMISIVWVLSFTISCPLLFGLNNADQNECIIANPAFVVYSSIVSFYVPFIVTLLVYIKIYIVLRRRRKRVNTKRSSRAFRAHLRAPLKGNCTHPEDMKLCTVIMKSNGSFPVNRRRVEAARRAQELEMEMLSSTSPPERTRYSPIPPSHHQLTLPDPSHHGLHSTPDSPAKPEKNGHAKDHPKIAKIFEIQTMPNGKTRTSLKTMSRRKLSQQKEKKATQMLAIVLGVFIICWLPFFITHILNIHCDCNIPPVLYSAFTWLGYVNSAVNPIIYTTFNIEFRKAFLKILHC

Cc1cccc(-n2cc(CN3CCN(c4cccc5ccccc45)CC3)nn2)c1 [Compound 18, 1-(Naphthalen-1-yl)-4-((1-(m-tolyl)-1H-1,2,3-triazol-4-yl)methyl)piperazine]
half-life [1]: 56.8 ± 10.2 min | Ki [2]: 6540 ± 5370 nM | Ki [3]: 4.33 ± 1.02 nM | Selectivity D2R/D4R ([3]; ratio of Ki values): 1510 | Selectivity D3R/D4R ([3]; ratio of Ki values): 2504 | EC50 [4]: 2140 ± 1070 nM | IC50 [4]: 904 ± 102 nM | D4R Ant. (%) ([4]; cAMP, antagonist mode, 10 μM forskolin and 10 nM dopamine, normalized to spiperone): 72 ± 5% | Emax ([4]; read-out: D4R Emax (%)): 24 ± 7%
